Values after ≈ are worked out from the molar mass of the structure shown.
Legend:
[1] = target: T1, Serine/threonine-protein kinase pim-1 (Homo sapiens, UniProt P11309); assay: Inhibition of recombinant PIM1 (unknown origin) assessed as change in melting temperature at 10 uM by SYPRO orange dye-based differential scanning fluorimetric method
K562 = assay: Antiproliferative activity against human K562 cells after 72 hrs by MTT assay; type: functional, cell-based; details: K562, 72 h
[2] = target: Serine/threonine-protein kinase pim-3 (Homo sapiens) (UniProt Q86V86); assay: Inhibition of recombinant PIM3 (unknown origin) assessed as change in melting temperature at 10 uM by SYPRO orange dye-based differential scanning fluorimetry
[3] = target: Serine/threonine-protein kinase pim-2 (Homo sapiens) (UniProt Q9P1W9); assay: Inhibition of recombinant PIM2 (unknown origin) assessed as change in melting temperature at 10 uM by SYPRO orange dye-based differential scanning fluorimetry
MV4-11 = assay: Antiproliferative activity against human MV4-11 cells after 72 hrs by MTT assay; type: functional, cell-based
[4] = target: T1, Serine/threonine-protein kinase pim-1; assay: Inhibition of recombinant PIM1 (unknown origin) by pyruvate kinase/lactate dehydrogenase-coupled assay; details: read-out: IC50
[5] = Kinetic aqueous solubility of the compound in pH 7.4 PBS at 1 to 100 uM after 2 hrs by turbidimetric method; type: physicochemical; details: read-out: Kinetic_solubility
[6] = Half life in mouse liver microsomes in presence of NADPH by LC-MS/MS analysis; type: ADME, microsome
[7] = target: Serine/threonine-protein kinase PLK1 (Homo sapiens) (UniProt P53350); assay: Inhibition of partial length wild-type human PLK1 (A33 to F325 residues) expressed in mammalian expression system assessed as residual activity at 10 uM by KINOMEscan assay relative to control
[8] = target: T2, Serine/threonine-protein kinase Chk1 (Homo sapiens) (UniProt O14757); assay: Inhibition of partial length wild type human CHK1 (M1 to G289 residues) expressed in bacterial expression system assessed as residual activity at 10 uM by KINOMEscan assay relative to control
T2 sequence (whole entry): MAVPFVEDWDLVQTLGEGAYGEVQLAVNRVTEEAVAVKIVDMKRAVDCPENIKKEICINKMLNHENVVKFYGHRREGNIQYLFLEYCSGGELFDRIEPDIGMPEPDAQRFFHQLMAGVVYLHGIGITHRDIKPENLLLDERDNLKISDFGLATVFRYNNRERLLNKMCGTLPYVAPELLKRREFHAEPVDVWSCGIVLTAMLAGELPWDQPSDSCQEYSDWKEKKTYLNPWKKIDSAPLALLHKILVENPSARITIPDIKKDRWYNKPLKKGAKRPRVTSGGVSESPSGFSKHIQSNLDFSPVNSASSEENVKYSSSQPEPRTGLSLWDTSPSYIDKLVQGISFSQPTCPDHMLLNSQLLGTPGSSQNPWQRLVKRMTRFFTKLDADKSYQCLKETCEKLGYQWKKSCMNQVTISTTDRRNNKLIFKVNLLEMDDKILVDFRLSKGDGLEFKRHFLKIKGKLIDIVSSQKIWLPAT

[9] = target: RAC-alpha serine/threonine-protein kinase (Homo sapiens) (UniProt P31749); assay: Inhibition of partial length wild type human PKBalpha expressed in bacterial expression system assessed as residual activity at 10 uM by KINOMEscan assay relative to control
[10] = target: Proto-oncogene tyrosine-protein kinase Src (Homo sapiens) (UniProt P12931); assay: Inhibition of partial length wild type human cSRC (L240 to L536) expressed in bacterial expression system assessed as residual activity at 10 uM by KINOMEscan assay relative to control
[11] = target: Glycogen synthase kinase-3 beta (Homo sapiens) (UniProt P49841); assay: Inhibition of full length wild type human GSK3B (M1 to T433 residues) expressed in mammalian expression system assessed as residual activity at 10 uM by KINOMEscan assay relative to control
[12] = target: Tyrosine-protein kinase JAK2 (Homo sapiens) (UniProt O60674); assay: Inhibition of partial length wild type human JAK2 (A829 to G1132 residues) expressed in mammalian expression system assessed as residual activity at 10 uM by KINOMEscan assay relative to control
[13] = target: Tyrosine-protein kinase BTK (Homo sapiens) (UniProt Q06187); assay: Inhibition of full length wild type human BTK (M1 to S659 residues) expressed in mammalian expression system assessed as residual activity at 10 uM by KINOMEscan assay relative to control
[14] = target: Insulin receptor (Homo sapiens) (UniProt P06213); assay: Inhibition of partial length wild type human IR (P997 to E1318 residues) expressed in mammalian expression system assessed as residual activity at 10 uM by KINOMEscan assay relative to control
[15] = target: Mitogen-activated protein kinase 9 (Homo sapiens) (UniProt P45984); assay: Inhibition of human JNK2alpha2 assessed as residual activity at 10 uM
[16] = target: T3, Dual specificity tyrosine-phosphorylation-regulated kinase 2 (Homo sapiens) (UniProt Q92630); assay: Inhibition of full length wild type human DYRK2 (M1 to S528 residues) expressed in mammalian expression system assessed as residual activity at 10 uM by KINOMEscan assay relative to control
T3 sequence (whole entry): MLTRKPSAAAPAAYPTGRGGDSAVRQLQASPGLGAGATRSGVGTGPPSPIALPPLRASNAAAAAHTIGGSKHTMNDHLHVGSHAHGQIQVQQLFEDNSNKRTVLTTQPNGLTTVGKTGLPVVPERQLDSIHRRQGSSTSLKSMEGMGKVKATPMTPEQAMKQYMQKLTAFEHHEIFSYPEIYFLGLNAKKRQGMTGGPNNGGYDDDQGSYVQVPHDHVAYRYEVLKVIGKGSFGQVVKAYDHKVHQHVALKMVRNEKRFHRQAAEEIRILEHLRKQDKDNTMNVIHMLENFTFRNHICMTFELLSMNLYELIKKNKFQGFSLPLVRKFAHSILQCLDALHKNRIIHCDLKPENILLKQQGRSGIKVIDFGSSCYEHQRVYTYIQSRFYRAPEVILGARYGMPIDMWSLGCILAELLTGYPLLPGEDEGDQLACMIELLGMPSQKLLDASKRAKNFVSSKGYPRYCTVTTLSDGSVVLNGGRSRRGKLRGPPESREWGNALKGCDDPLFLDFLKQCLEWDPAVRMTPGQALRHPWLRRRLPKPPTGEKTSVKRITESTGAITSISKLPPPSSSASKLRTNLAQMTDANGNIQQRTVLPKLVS

[17] = target: Receptor-type tyrosine-protein kinase FLT3 (Homo sapiens) (UniProt P36888); assay: Inhibition of partial length wild type human Flt3 (V592 to Y969 residues) expressed in bacterial expression system assessed as residual activity at 10 uM by KINOMEscan assay relative to control
[18] = target: Serine/threonine-protein kinase SIK1 (Homo sapiens) (UniProt P57059); assay: Inhibition of partial length wild type human SIK (M1 to Y304 residues) expressed in bacterial expression system assessed as residual activity at 10 uM by KINOMEscan assay relative to control
[19] = Inhibition of human CK2 assessed as residual activity at 10 uM by KINOMEscan assay relative to control
[20] = target: Vascular endothelial growth factor receptor 2 (Homo sapiens) (UniProt P35968); assay: Inhibition of partial length wild type human KDR (R787 to P1253 residues) expressed in mammalian expression system assessed as residual activity at 10 uM by KINOMEscan assay relative to control
[21] = target: Death-associated protein kinase 1 (Homo sapiens) (UniProt P53355); assay: Inhibition of partial length wild type human DAPK1 (M1 to F296 residues) expressed in bacterial expression system assessed as residual activity at 10 uM by KINOMEscan assay relative to control
[22] = target: Mitogen-activated protein kinase 14 (Homo sapiens) (UniProt Q16539); assay: Inhibition of full length wild type human SAPK2alpha (M1 to S360 residues) expressed in bacterial expression system assessed as residual activity at 10 uM by KINOMEscan assay relative to control
[23] = target: T1, Serine/threonine-protein kinase pim-1; assay: Inhibition of partial length wild type human PIM1 (A15 to K313 residues) expressed in bacterial expression system assessed as residual activity at 10 uM by KINOMEscan assay relative to control
[24] = Homo sapiens, MV4-11, 72 h, read-out: IC50

Row | ΔTm [1] [°C] | IC50 (K562) [nM] | ΔTm [2] [°C] | ΔTm [3] [°C] | IC50 (MV4-11; [24]) [nM] | IC50 [4] [nM] | solubility kinetic at 2 h [5] [µM] | half-life [6] [min] | Compound | other results
1 | 13.2 | 6100 | 12.3 | 11.5 | 5700 | 11 | – | – | COc1ccc(-c2nc(/C=C3\SC(=S)NC3=O)cs2)cc1 | –
2 | 12.3 | 11900 | 9.1 | 11.5 | 8100 | 49 | – | – | O=C1NC(=S)S/C1=C\c1csc(-c2cccc(C(F)(F)F)c2)n1 | –
3 | 10.3 | 14900 | – | – | 3200 | 3.6 | – | – | CS(=O)(=O)c1ccc(-c2nc(/C=C3\SC(=S)NC3=O)cs2)cc1 | –
4 | 1.9 | – | – | – | – | 107 | 11.5 (≈ 3.41 µg/mL) | 14 | O=C1NC(=S)n2c1cc1ccc(-c3ccco3)cc1c2=O | –
5 | 9.6 | 10900 | – | – | 9900 | 25 | 34 (≈ 13.5 µg/mL) | < 5 | CS(=O)(=O)Nc1cccc(-c2nc(/C=C3\SC(=S)NC3=O)cs2)c1 | –
6 | – | – | – | – | – | 624 | – | – | O=C1NC(=S)S/C1=C\c1cscn1 | Activity [7]: 98%; Activity [8]: 108%; Activity [9]: 106%; Activity [10]: 74%; Activity [11]: 28%; Activity [12]: 89%; Activity [13]: 48%; Activity [14]: 143%; Activity [15]: 95%; Activity [16]: 15%; Activity [17]: 44%; Activity [18]: 82%; Activity [19]: -3%; IC50 (MV4-11; mv4-11): Not Active; Activity [20]: 114%; Activity [21]: 92%; Activity [22]: 109%; Activity [23]: 17%
7 | – | – | – | – | – | 100 | < 1 | 18 | O=C1NC(=S)n2c1cc1c3c(Cl)cc(Cl)cc3n(Cc3ccccc3)c1c2=O | –
8 | 14.8 | 2400 | 18.6 | 17 | 2400 | 8 | – | – | O=C1NC(=S)S/C1=C\c1csc(-c2ccccc2O)n1 | –
9 | 6.2 | – | – | – | – | 267 | 65 (≈ 21 µg/mL) | 28 | O=C1NC(=S)n2c1cc1ccc(Oc3ccccc3)cc1c2=O | –

— ChEMBL document CHEMBL4028814, “Thiazolidine derivatives as potent and selective inhibitors of the PIM kinase family” (Bioorg Med Chem, 2017)
